{"source": "patent US8956646B2", "about": "“Zwitterionic lipids” (The Regents of the University of California, priority 2010, dated 2015)", "key": {"[1]": {"experiment": "SBL liposome formation, diameter and PDI in various salts", "type": "physicochemical", "parameters": "key to Liposome diameter (nm): DNF=Did Not Form, no liposomes formed", "description": "The five SBLs were first examined for their ability to make vesicles under standard buffer conditions (10 mM HEPES, 140 mM NaCl, pH 7.4). We observed that none of the five SBLs were able to form stable liposomes after thin film rehydration in this buffer followed by sonication at 80° C. […] To test if the SB headgroup inner salt interactions could be disrupted by an increase in salt concentration, the same liposome formation process was performed at increasing NaCl concentrations. Salts with different anions were also tested to determine if those predicted to have greater binding than Cl^− would allow for liposome formation at concentrations where NaCl was not able to. Liposome-formation results are shown in Table 4 for all five SBLs with a variety of salts and at various NaCl concentrations.\nLiposome preparations were made at 26 mM lipid in 10 mM HEPES buffer, pH 7.4 with the specified salt concentration. All preparations were rehydrated and sonicated at 80° C. for 7 minutes, allowed to cool for 5 minutes and then measured.\nLiposome diameters were measured both five minutes after sonication and at 24 hours. DPSB and DSSB in NaI both formed gels and could not be measured and DPSB and DSSB with KBr precipitated into particles too large and polydisperse for measurement."}, "[2]": {"conditions": "literature values, cited from earlier work; for Transition Temperatures (° C.), PC: PC headgroup"}, "[3]": {"experiment": "Phase transition temperatures of sulfobetaine lipids (DSC)", "type": "physicochemical", "description": "All buffers contain 10 mM HEPES, pH 7.4. Preparations were made at 26 mM SB lipid by thin film rehydration at 80° C., followed by brief 20 second bursts of sonication at 80° C. (˜2-4 times) to make dispersions of large bilayer fragments.\nBased on our observations that SBL liposome formation and stability is largely dependent on salt composition and concentration we sought to determine if these effects changed the transition temperatures of the liposomes. The data in FIG. 3 clearly depicts a bi-modal phase transition behavior for the SBLs. Without salt, the majority of the SBLs are likely in one of the inner salt forms supported by the observed elevated transition temperatures.\nInner and outer salt conformations of the SBLs are hypothesized to coordinate to the observed high and low phase transitions, respectively."}, "[4]": {"experiment": "Zeta potential of liposomes as a function of calcium concentration", "type": "physicochemical", "conditions": "across physiological Ca2+ concentrations", "description": "Liposomes were prepared from either DOPC or DOCPe and their zeta potentials were measured in a Malvern zetaNano instrument as a function of the calcium concentration. Liposomes prepared from either lipid become more positively charged as the Ca^2+ concentration increases."}, "[5]": {"conditions": "0 mM NaCl, 26 mM lipid, 10 mM HEPES pH 7.4"}, "[6]": {"conditions": "150 mM KBr, five minutes after sonication"}, "[7]": {"conditions": "150 mM NaCl, 26 mM lipid, 10 mM HEPES pH 7.4"}, "[8]": {"conditions": "150 mM NaClO4, five minutes after sonication"}, "[9]": {"conditions": "150 mM NaI, five minutes after sonication"}, "[10]": {"conditions": "500 mM NaCl, 26 mM lipid, 10 mM HEPES pH 7.4"}, "[11]": {"conditions": "1000 mM NaCl, 26 mM lipid, 10 mM HEPES pH 7.4"}}, "data": [{"smiles": "CCCCCCCC/C=C\\CCCCCCCC(=O)OCC(C[N+](C)(C)CCCS(=O)(=O)[O-])OC(=O)CCCCCCC/C=C\\CCCCCCCC", "note": "(stereo not drawn) [DOSB]", "values": [{"measurement": "Liposome diameter (nm)", "setting": "[1]; [5]", "value": "DNF"}, {"measurement": "Liposome diameter (nm)", "setting": "[1]; 150 mM KBr (24 h)", "value": 137.6, "unit": "nm"}, {"measurement": "PDI", "setting": "[1]; 150 mM KBr (24 h)", "value": 0.353}, {"measurement": "Liposome diameter (nm)", "setting": "[1]; [6]", "value": 120.8, "unit": "nm"}, {"measurement": "PDI", "setting": "[1]; [6]", "value": 0.260}, {"measurement": "Liposome diameter (nm)", "setting": "[1]; [7]", "value": "DNF"}, {"measurement": "Liposome diameter (nm)", "setting": "[1]; 150 mM NaClO4 (24 h)", "value": 69.18, "unit": "nm"}, {"measurement": "PDI", "setting": "[1]; 150 mM NaClO4 (24 h)", "value": 0.235}, {"measurement": "Liposome diameter (nm)", "setting": "[1]; [8]", "value": 67.7, "unit": "nm"}, {"measurement": "PDI", "setting": "[1]; [8]", "value": 0.250}, {"measurement": "Liposome diameter (nm)", "setting": "[1]; 150 mM NaF", "value": "DNF"}, {"measurement": "Liposome diameter (nm)", "setting": "[1]; 150 mM NaI (24 h)", "value": 99.24, "unit": "nm"}, {"measurement": "PDI", "setting": "[1]; 150 mM NaI (24 h)", "value": 0.253}, {"measurement": "Liposome diameter (nm)", "setting": "[1]; [9]", "value": 90.58, "unit": "nm"}, {"measurement": "PDI", "setting": "[1]; [9]", "value": 0.246}, {"measurement": "Liposome diameter (nm)", "setting": "[1]; [10]", "value": 126.9, "unit": "nm"}, {"measurement": "PDI", "setting": "[1]; [10]", "value": 0.197}, {"measurement": "Liposome diameter (nm)", "setting": "[1]; [11]", "value": 118.9, "unit": "nm"}, {"measurement": "PDI", "setting": "[1]; [11]", "value": 0.176}]}, {"smiles": "CCCCCCCCCCCCCC(=O)OC[C@H](COP(=O)([O-])OCC[N+](C)(C)C)OC(=O)CCCCCCCCCCCCC", "note": "[C14 PC]", "values": [{"measurement": "Transition Temperatures (° C.), PC", "setting": "[2]", "value": 24.2, "unit": "°C"}]}, {"smiles": "CCCCCCCCCCCCCCCC(=O)OCC(C[N+](C)(C)CCCS(=O)(=O)[O-])OC(=O)CCCCCCCCCCCCCCC", "note": "(stereo not drawn) [DPSB]", "values": [{"measurement": "phase transitions observed", "setting": "[3]; 150 mM NaClO4", "value": "only the high transition"}, {"measurement": "phase transitions observed", "setting": "[3]; 150 mM NaF", "value": "only the low transition"}, {"measurement": "temperature of residual inner salt transition", "setting": "[3]; 500 mM NaCl", "value": 58, "unit": "°C"}, {"measurement": "inner/outer salt form (high/low transition) as function of NaCl concentration", "setting": "[3]; DSC, 10 mM HEPES pH 7.4, NaCl up to 1M", "value": "switches from the inner salt to the outer salt at 500 mM"}, {"measurement": "Transition Temperatures (° C.), SB Inner Salt", "setting": "[3]; hypothesized inner salt form, observed high phase transition", "value": 60, "unit": "°C"}, {"measurement": "Transition Temperatures (° C.), SB Outer Salt", "setting": "[3]; hypothesized outer salt form, observed low phase transition", "value": 43, "unit": "°C"}, {"measurement": "Liposome diameter (nm)", "setting": "[1]; [5]", "value": "DNF"}, {"measurement": "Liposome diameter (nm)", "setting": "[1]; 150 mM KBr (24 h)", "value": "Precipitated"}, {"measurement": "Liposome diameter (nm)", "setting": "[1]; [6]", "value": 64.35, "unit": "nm"}, {"measurement": "PDI", "setting": "[1]; [6]", "value": 0.134}, {"measurement": "Liposome diameter (nm)", "setting": "[1]; [7]", "value": "DNF"}, {"measurement": "Liposome diameter (nm)", "setting": "[1]; 150 mM NaClO4 (24 h)", "value": 42.71, "unit": "nm"}, {"measurement": "PDI", "setting": "[1]; 150 mM NaClO4 (24 h)", "value": 0.353}, {"measurement": "Liposome diameter (nm)", "setting": "[1]; [8]", "value": 35.1, "unit": "nm"}, {"measurement": "PDI", "setting": "[1]; [8]", "value": 0.220}, {"measurement": "Liposome diameter (nm)", "setting": "[1]; 150 mM NaF", "value": "DNF"}, {"measurement": "Liposome diameter (nm)", "setting": "[1]; 150 mM NaI (24 h)", "value": "Formed Gel"}, {"measurement": "Liposome diameter (nm)", "setting": "[1]; [9]", "value": 57.45, "unit": "nm"}, {"measurement": "PDI", "setting": "[1]; [9]", "value": 0.296}, {"measurement": "Liposome diameter (nm)", "setting": "[1]; [10]", "value": 66.95, "unit": "nm"}, {"measurement": "PDI", "setting": "[1]; [10]", "value": 0.253}, {"measurement": "Liposome diameter (nm)", "setting": "[1]; [11]", "value": 92.53, "unit": "nm"}, {"measurement": "PDI", "setting": "[1]; [11]", "value": 0.275}]}, {"smiles": "CCCCCCCC/C=C\\CCCCCCCC(=O)OCC(C[N+](C)(C)CCOP(=O)([O-])OCC)OC(=O)CCCCCCC/C=C\\CCCCCCCC", "note": "(stereo not drawn) [DOCPe]", "values": [{"measurement": "zeta potential of liposomes", "setting": "[4]", "value": "remain negative"}]}, {"smiles": "CCCCCCCCCCCCCCCCCC(=O)OC[C@H](COP(=O)([O-])OCC[N+](C)(C)C)OC(=O)CCCCCCCCCCCCCCCCC", "note": "[C18 PC]", "values": [{"measurement": "Transition Temperatures (° C.), PC", "setting": "[2]", "value": 55.3, "unit": "°C"}]}, {"smiles": "CCCCCCCCCCCCCC(=O)OC[C@H](COP(=O)(O)OCCN)OC(=O)CCCCCCCCCCCCC", "note": "[C14 PE]", "values": [{"measurement": "Transition Temperatures (° C.), PE", "setting": "[2]; PE headgroup", "value": 49.4, "unit": "°C"}]}, {"smiles": "CCCCCCCCCCCCCCCC(=O)OC[C@H](COP(=O)([O-])OCC[N+](C)(C)C)OC(=O)CCCCCCCCCCCCCCC", "note": "[C16 PC]", "values": [{"measurement": "Transition Temperatures (° C.), PC", "setting": "[2]", "value": 41.7, "unit": "°C"}]}, {"smiles": "CCCCCCCC/C=C\\CCCCCCCC(=O)OC[C@H](COP(=O)([O-])OCC[N+](C)(C)C)OC(=O)CCCCCCC/C=C\\CCCCCCCC", "note": "[DOPC, reference compound]", "values": [{"measurement": "zeta potential of liposomes", "setting": "[4]", "value": "become positively charged"}]}]}
